{"source": "paper PMC5218480", "about": "(PLoS ONE, 2017)", "system": "MV-4-11 cells", "test": "Gene expression microarray analysis (Affymetrix PrimeView) and GSEA", "format": "cell-based, human", "set-up": "RFU PODN (11730768_x_at) / Fold change /veh PODN (11730768_x_at) / RFU LINC00158 (11744669_a_at) / Fold change /veh LINC00158 (11744669_a_at) / RFU DUSP10 (11751237_a_at) / Fold change /veh DUSP10 (11751237_a_at) / RFU ID3 (11757404_x_at) / Fold change /veh ID3 (11757404_x_at) / RFU PLEKHG5 (11737974_s_at) / Fold change /veh PLEKHG5 (11737974_s_at) / RFU LRRC4B (11730491_at) / Fold change /veh LRRC4B (11730491_at) / RFU GIMAP4 (11747438_a_at) / Fold change /veh GIMAP4 (11747438_a_at) / RFU KRT8 (11758183_x_at) / Fold change /veh KRT8 (11758183_x_at) / RFU CNN1 (11734310_a_at) / Fold change /veh CNN1 (11734310_a_at) / RFU VPS37D (11726825_at) / Fold change /veh VPS37D (11726825_at) / RFU C10orf10 (11716522_x_at) / Fold change /veh C10orf10 (11716522_x_at) / RFU KIR2DL2 /// KIR2DL4 /// KIR2DL5A /// KIR2DL5B /// KIR2DS1 /// KIR2DS2 /// KIR2DS3 /// KIR2DS4 /// KIR3DL3 /// KIR3DL3 /// KIR3DS1 (11738374_at) / Fold change /veh KIR2DL2 /// KIR2DL4 /// KIR2DL5A /// KIR2DL5B /// KIR2DS1 /// KIR2DS2 /// KIR2DS3 /// KIR2DS4 /// KIR3DL3 /// KIR3DL3 /// KIR3DS1 (11738374_at) / RFU C1QL1 (11718748_at) / Fold change /veh C1QL1 (11718748_at) / RFU TMPRSS4 (11747572_a_at) / Fold change /veh TMPRSS4 (11747572_a_at) / RFU HAMP (11756126_x_at) / Fold change /veh HAMP (11756126_x_at) / RFU RNFT2 (11725882_a_at) / Fold change /veh RNFT2 (11725882_a_at) / RFU NR4A2 (11747474_a_at) / Fold change /veh NR4A2 (11747474_a_at) / RFU ABCC12 (11746883_a_at) / Fold change /veh ABCC12 (11746883_a_at) / RFU TMEM136 (11760407_x_at) / Fold change /veh TMEM136 (11760407_x_at) / RFU CLDN22 /// WWC2 (11732394_at) / Fold change /veh CLDN22 /// WWC2 (11732394_at) / RFU HLA-DPB1 (11760878_x_at) / Fold change /veh HLA-DPB1 (11760878_x_at) / RFU SPINT1 (11716480_a_at) / Fold change /veh SPINT1 (11716480_a_at) / RFU GAP43 (11754022_s_at) / Fold change /veh GAP43 (11754022_s_at) / RFU A4GNT (11735810_at) / Fold change /veh A4GNT (11735810_at) / RFU PRB3 (11715151_x_at) / Fold change /veh PRB3 (11715151_x_at) / RFU TUBB4B (11761932_at) / Fold change /veh TUBB4B (11761932_at) / RFU CAPN14 (11732068_a_at) / Fold change /veh CAPN14 (11732068_a_at) / RFU TMCC2 (11721928_a_at) / Fold change /veh TMCC2 (11721928_a_at) / RFU IRGQ (11745062_a_at) / Fold change /veh IRGQ (11745062_a_at) / RFU FAM174B (11720279_a_at) / Fold change /veh FAM174B (11720279_a_at) / RFU TMPRSS4 (11748680_a_at) / Fold change /veh TMPRSS4 (11748680_a_at) / RFU FAM212B (11763350_a_at) / Fold change /veh FAM212B (11763350_a_at) / RFU PLEKHG5 (11743358_a_at) / Fold change /veh PLEKHG5 (11743358_a_at) / RFU ZSCAN30 (11745921_a_at) / Fold change /veh ZSCAN30 (11745921_a_at) / RFU CMKLR1 (11741424_a_at) / Fold change /veh CMKLR1 (11741424_a_at) / RFU LOC101060620 /// MAPK8IP1 (11723275_at) / Fold change /veh LOC101060620 /// MAPK8IP1 (11723275_at) / RFU SPTSSB (11747773_x_at) / Fold change /veh SPTSSB (11747773_x_at) / RFU PRSS12 (11739890_at) / Fold change /veh PRSS12 (11739890_at) / RFU BIN1 (11741810_x_at) / Fold change /veh BIN1 (11741810_x_at) / RFU WNT11 (11732464_a_at) / Fold change /veh WNT11 (11732464_a_at) / RFU C10orf10 (11716521_a_at) / Fold change /veh C10orf10 (11716521_a_at) / RFU C5orf56 (11738089_at) / Fold change /veh C5orf56 (11738089_at) / RFU CYB561 (11721691_x_at) / Fold change /veh CYB561 (11721691_x_at) / RFU ANKRD19P (11752326_a_at) / Fold change /veh ANKRD19P (11752326_a_at) / RFU OR2T12 /// OR2T33 /// OR2T8 (11738714_s_at) / Fold change /veh OR2T12 /// OR2T33 /// OR2T8 (11738714_s_at) / RFU VCAN (11748164_a_at) / Fold change /veh VCAN (11748164_a_at) / RFU JSRP1 (11732532_at) / Fold change /veh JSRP1 (11732532_at) / RFU KRTAP10-11 (11738290_x_at) / Fold change /veh KRTAP10-11 (11738290_x_at) / RFU MYO3A (11730013_a_at) / Fold change /veh MYO3A (11730013_a_at) / RFU EBF3 (11725865_a_at) / Fold change /veh EBF3 (11725865_a_at) / RFU CAMK2N1 (11719241_x_at) / Fold change /veh CAMK2N1 (11719241_x_at) / RFU C5orf56 (11738088_a_at) / Fold change /veh C5orf56 (11738088_a_at) / RFU OLFML3 (11715873_a_at) / Fold change /veh OLFML3 (11715873_a_at) / RFU LOC100653217 /// NTM (11731650_a_at) / Fold change /veh LOC100653217 /// NTM (11731650_a_at) / RFU MAPK11 (11762145_a_at) / Fold change /veh MAPK11 (11762145_a_at) / RFU FIZ1 (11724087_x_at) / Fold change /veh FIZ1 (11724087_x_at) / RFU OASL (11726364_x_at) / Fold change /veh OASL (11726364_x_at) / RFU SOX15 (11748057_x_at) / Fold change /veh SOX15 (11748057_x_at) / RFU CD79A (11719716_a_at) / Fold change /veh CD79A (11719716_a_at) / RFU HIST1H1D (11736915_at) / Fold change /veh HIST1H1D (11736915_at) / RFU CASKIN2 (11723855_a_at) / Fold change /veh CASKIN2 (11723855_a_at) / RFU LOC730098 (11760151_x_at) / Fold change /veh LOC730098 (11760151_x_at) / RFU OR4N2 (11742367_at) / Fold change /veh OR4N2 (11742367_at) / RFU PRRT2 (11749266_a_at) / Fold change /veh PRRT2 (11749266_a_at) / RFU SNX32 (11753110_a_at) / Fold change /veh SNX32 (11753110_a_at) / RFU CDHR5 (11726645_a_at) / Fold change /veh CDHR5 (11726645_a_at) / RFU RCAN1 (11760418_a_at) / Fold change /veh RCAN1 (11760418_a_at) / RFU FAM167A (11723789_a_at) / Fold change /veh FAM167A (11723789_a_at) / RFU FAM26E (11764081_at) / Fold change /veh FAM26E (11764081_at) / RFU ISYNA1 (11749810_s_at) / Fold change /veh ISYNA1 (11749810_s_at) / RFU ACY1 (11761880_at) / Fold change /veh ACY1 (11761880_at) / RFU 11764098_at / Fold change /veh 11764098_at / RFU SAMD14 (11745864_x_at) / Fold change /veh SAMD14 (11745864_x_at) / RFU NPB (11741838_a_at) / Fold change /veh NPB (11741838_a_at) / RFU TMPRSS6 (11731388_a_at) / Fold change /veh TMPRSS6 (11731388_a_at) / RFU KRTAP10-2 (11738614_at) / Fold change /veh KRTAP10-2 (11738614_at) / RFU ARHGAP8 /// PRR5-ARHGAP8 (11727945_x_at) / Fold change /veh ARHGAP8 /// PRR5-ARHGAP8 (11727945_x_at) / RFU KRTAP5-7 /// NADSYN1 (11734609_at) / Fold change /veh KRTAP5-7 /// NADSYN1 (11734609_at) / RFU RASL12 (11751679_a_at) / Fold change /veh RASL12 (11751679_a_at) / RFU CDKN2B (11736163_a_at) / Fold change /veh CDKN2B (11736163_a_at) / RFU PRF1 (11729649_at) / Fold change /veh PRF1 (11729649_at) / RFU, ZNF638 /// ZNF638-IT1 / Fold change vs veh, ZNF638 /// ZNF638-IT1 / RFU, PANK3 / Fold change vs veh, PANK3 / RFU, SH3YL1 / Fold change vs veh, SH3YL1 / RFU, ZEB2 / Fold change vs veh, ZEB2 / RFU, NRIP1 / Fold change vs veh, NRIP1 / RFU, PTTG1IP / Fold change vs veh, PTTG1IP / RFU, CAPN2 / Fold change vs veh, CAPN2 / RFU, MED14 / Fold change vs veh, MED14 / RFU, SNORA58 / Fold change vs veh, SNORA58 / RFU, C1orf63 / Fold change vs veh, C1orf63 / RFU, LRRFIP1 / Fold change vs veh, LRRFIP1 / RFU, NDUFAF7 / Fold change vs veh, NDUFAF7 / RFU, SLC12A2 / Fold change vs veh, SLC12A2 / RFU, IBTK / Fold change vs veh, IBTK / RFU, ESF1 / Fold change vs veh, ESF1 / Fold change vs veh, TMEM50B / RFU, TAOK1 / Fold change vs veh, TAOK1 / RFU, ACBD3 / Fold change vs veh, ACBD3 / RFU, TMA16 / Fold change vs veh, TMA16 / RFU, RWDD3 / Fold change vs veh, RWDD3 / RFU, BCAT1 / Fold change vs veh, BCAT1 / RFU, EDEM3 / Fold change vs veh, EDEM3 / RFU, TMEM33 / Fold change vs veh, TMEM33 / RFU, WDR75 / Fold change vs veh, WDR75 / RFU, AHCTF1 / Fold change vs veh, AHCTF1 / RFU, TFRC / Fold change vs veh, TFRC / RFU, ZDHHC17 / Fold change vs veh, ZDHHC17 / RFU, NOM1 / Fold change vs veh, NOM1 / RFU, ARL8B / Fold change vs veh, ARL8B / RFU, ZBTB11 / Fold change vs veh, ZBTB11 / RFU, TAMM41 / Fold change vs veh, TAMM41 / RFU, KIAA1704 /// LOC100996395 / Fold change vs veh, KIAA1704 /// LOC100996395 / RFU, ING1 / Fold change vs veh, ING1 / RFU, TRMT61B / Fold change vs veh, TRMT61B / RFU, FUBP3 / Fold change vs veh, FUBP3 / RFU, TP53 / Fold change vs veh, TP53 / RFU, TNKS2 / Fold change vs veh, TNKS2 / RFU, ZFP14 / Fold change vs veh, ZFP14 / RFU, ACTR2 / Fold change vs veh, ACTR2 / RFU, PPP3R1 / Fold change vs veh, PPP3R1 / RFU, PIK3R1 / Fold change vs veh, PIK3R1 / RFU, HNRNPA1 / Fold change vs veh, HNRNPA1 / RFU, RNF170 / Fold change vs veh, RNF170 / RFU, ZNF28 / Fold change vs veh, ZNF28 / RFU, RNGTT / Fold change vs veh, RNGTT / RFU, OGT / Fold change vs veh, OGT / RFU, BRD1 / Fold change vs veh, BRD1 / RFU, MARS / Fold change vs veh, MARS / RFU, ZNF655 / Fold change vs veh, ZNF655 / RFU, FAHD1 / Fold change vs veh, FAHD1 / RFU, BDP1 / Fold change vs veh, BDP1 / RFU, LRRCC1 / Fold change vs veh, LRRCC1 / RFU, ARID1A / Fold change vs veh, ARID1A / RFU, ZNF146 / Fold change vs veh, ZNF146 / RFU, ZNF330 / Fold change vs veh, ZNF330 / RFU, GPN3 / Fold change vs veh, GPN3 / RFU, C9orf123 / Fold change vs veh, C9orf123 / RFU, N4BP2L2 / Fold change vs veh, N4BP2L2 / RFU, ARFIP1 / Fold change vs veh, ARFIP1 / RFU, FAM179B / Fold change vs veh, FAM179B / RFU, BCL10 / Fold change vs veh, BCL10 / RFU, UHRF1BP1L / Fold change vs veh, UHRF1BP1L / RFU, BET1 / Fold change vs veh, BET1 / RFU, CNOT2 / Fold change vs veh, CNOT2 / RFU, ZNF268 / Fold change vs veh, ZNF268 / Fold change vs veh, ZNF507 / RFU, DGCR2 / Fold change vs veh, DGCR2 / RFU, WDSUB1 / Fold change vs veh, WDSUB1 / Fold change vs veh, HSP90B1 /// MIR3652 / RFU, ADSS / Fold change vs veh, ADSS / RFU, GK / Fold change vs veh, GK / RFU, ZNF148 / Fold change vs veh, ZNF148 / RFU, TAF9 / Fold change vs veh, TAF9 / RFU, SLC1A5 / Fold change vs veh, SLC1A5 / RFU, SLMO2 / Fold change vs veh, SLMO2 / RFU, ABCC4 / Fold change vs veh, ABCC4 / RFU, LOC101060439 /// RAP1B / Fold change vs veh, LOC101060439 /// RAP1B / RFU, RFX7 / Fold change vs veh, RFX7 / RFU, GTPBP10 / Fold change vs veh, GTPBP10 / RFU, CNEP1R1 / Fold change vs veh, CNEP1R1 / RFU, BIVM-ERCC5 /// ERCC5 / Fold change vs veh, BIVM-ERCC5 /// ERCC5 / RFU, ILF3 / Fold change vs veh, ILF3 / RFU 11762660_at / Fold change /veh 11762660_at / RFU VCAN (11757783_s_at) / Fold change /veh VCAN (11757783_s_at) / RFU DDX43 (11728927_at) / Fold change /veh DDX43 (11728927_at) / RFU KRT8 (11758188_x_at) / Fold change /veh KRT8 (11758188_x_at) / RFU NKD1 (11759106_at) / Fold change /veh NKD1 (11759106_at) / RFU SRD5A1 (11742802_a_at) / Fold change /veh SRD5A1 (11742802_a_at) / RFU TPSAB1 /// TPSB2 (11721975_s_at) / Fold change /veh TPSAB1 /// TPSB2 (11721975_s_at) / RFU GSTM3 (11746129_a_at) / Fold change /veh GSTM3 (11746129_a_at) / RFU IL23R (11737362_x_at) / Fold change /veh IL23R (11737362_x_at) / RFU TMEM51 (11727254_a_at) / Fold change /veh TMEM51 (11727254_a_at) / RFU PIWIL2 (11732686_x_at) / Fold change /veh PIWIL2 (11732686_x_at) / RFU ORM1 (11744905_x_at) / Fold change /veh ORM1 (11744905_x_at) / RFU CCDC152 (11743942_at) / Fold change /veh CCDC152 (11743942_at) / RFU ECM1 (11717891_a_at) / Fold change /veh ECM1 (11717891_a_at) / RFU IL23R (11748794_a_at) / Fold change /veh IL23R (11748794_a_at) / RFU TNFAIP8L3 (11732012_x_at) / Fold change /veh TNFAIP8L3 (11732012_x_at) / RFU MBOAT4 (11741988_at) / Fold change /veh MBOAT4 (11741988_at) / RFU 11764193_at / Fold change /veh 11764193_at / RFU TMEM53 (11763286_at) / Fold change /veh TMEM53 (11763286_at) / RFU MAGEB2 (11727129_at) / Fold change /veh MAGEB2 (11727129_at) / RFU TMEM200A (11744735_a_at) / Fold change /veh TMEM200A (11744735_a_at) / RFU CCDC152 (11751479_a_at) / Fold change /veh CCDC152 (11751479_a_at) / RFU FAM211A (11726209_a_at) / Fold change /veh FAM211A (11726209_a_at) / RFU RGS16 (11746705_a_at) / Fold change /veh RGS16 (11746705_a_at) / RFU VCAN (11755009_s_at) / Fold change /veh VCAN (11755009_s_at) / RFU RHOB (11743442_s_at) / Fold change /veh RHOB (11743442_s_at) / RFU RGS16 (11720943_a_at) / Fold change /veh RGS16 (11720943_a_at) / RFU RGS16 (11720944_at) / Fold change /veh RGS16 (11720944_at) / RFU, VPS4B / Fold change vs veh, VPS4B / RFU, CREB1 / Fold change vs veh, CREB1 / RFU, DNAJC13 / Fold change vs veh, DNAJC13 / RFU, GNAQ / Fold change vs veh, GNAQ / RFU, CDK5R1 / Fold change vs veh, CDK5R1 / RFU, ZRANB3 / Fold change vs veh, ZRANB3 / RFU, CUL4A / Fold change vs veh, CUL4A / RFU, CCNY / Fold change vs veh, CCNY / RFU, UFL1 / Fold change vs veh, UFL1 / RFU, COG3 / Fold change vs veh, COG3 / RFU, DIAPH2 / Fold change vs veh, DIAPH2 / RFU, SKA2 / Fold change vs veh, SKA2 / RFU, AFF3 / Fold change vs veh, AFF3 / RFU, LMF1 / Fold change vs veh, LMF1 / RFU, IPO11 / Fold change vs veh, IPO11 / RFU, DFFB / Fold change vs veh, DFFB / RFU, FOXP1 / Fold change vs veh, FOXP1 / RFU, CARD8 / Fold change vs veh, CARD8 / RFU, STRN3 / Fold change vs veh, STRN3 / RFU, ADK / Fold change vs veh, ADK / RFU, RASSF2 / Fold change vs veh, RASSF2 / RFU, WIPF1 / Fold change vs veh, WIPF1 / RFU, LARP1B / Fold change vs veh, LARP1B / RFU, RASA1 / Fold change vs veh, RASA1 / RFU, RB1 / Fold change vs veh, RB1 / RFU, PPFIA1 / Fold change vs veh, PPFIA1 / RFU, MAT2A / Fold change vs veh, MAT2A / RFU, CCT5 / Fold change vs veh, CCT5 / RFU, WDR92 / Fold change vs veh, WDR92 / RFU, CUX1 / Fold change vs veh, CUX1 / RFU, TTC7A / Fold change vs veh, TTC7A / RFU, TMEM135 / Fold change vs veh, TMEM135 / RFU, DEPTOR / Fold change vs veh, DEPTOR / RFU, CPM / Fold change vs veh, CPM / RFU, DNAJB6 / Fold change vs veh, DNAJB6 / RFU, CACNA2D3 / Fold change vs veh, CACNA2D3 / RFU, DTX4 / Fold change vs veh, DTX4 / RFU, TFCP2 / Fold change vs veh, TFCP2 / RFU, GMCL1 /// GMCL1P1 / Fold change vs veh, GMCL1 /// GMCL1P1 / RFU, AEBP2 / Fold change vs veh, AEBP2 / RFU, SNHG1 /// SNORD22 /// SNORD25 /// SNORD26 /// SNORD27 /// SNORD28 /// SNORD29 /// SNORD31 / Fold change vs veh, SNHG1 /// SNORD22 /// SNORD25 /// SNORD26 /// SNORD27 /// SNORD28 /// SNORD29 /// SNORD31 / Fold change (Aza/veh), C12orf56 (ProbeSet 11735607_a_at) / Fold change (ACY-1035/veh), C12orf56 (ProbeSet 11735607_a_at) / Fold change (Aza/veh), FGFR1OP (ProbeSet 11751329_s_at) / Fold change (ACY-1035/veh), FGFR1OP (ProbeSet 11751329_s_at) / Fold change (Aza/veh), VPS36 (ProbeSet 11739960_a_at) / Fold change (ACY-1035/veh), VPS36 (ProbeSet 11739960_a_at) / RFU SYPL1 (11715823_x_at) / Fold change /veh SYPL1 (11715823_x_at) / RFU IGFBP7 (11715501_s_at) / Fold change /veh IGFBP7 (11715501_s_at) / RFU REEP3 (11722064_at) / Fold change /veh REEP3 (11722064_at) / RFU IGLL1 (11728026_x_at) / Fold change /veh IGLL1 (11728026_x_at): dose or concentration left out as unconfirmed", "conditions": "ProbeSet 11716844_s_at; LIST D", "data": [{"compound": "Nc1ncn([C@@H]2O[C@H](CO)[C@@H](O)[C@H]2O)c(=O)n1", "note": "[azacitidine]", "values": [{"measurement": "Fold change vs veh, DNAJC13", "result": 0.78}]}]}
